Test results: patent publication US20260072027A1, “Peptides And Method” (Queen Mary University of London, priority 2022, published 2026)
Where no end group is shown, it is not given here. [ ]: non-standard residue; d: D form. Dopa = N[C@@H](Cc1ccc(O)c(O)c1)C(=O)O; Cya = N[C@@H](CS(=O)(=O)O)C(=O)O

Tests used:
[1] = system: serum IgG autoantibodies; assay: ELISA for autoantibody detection: serum antibody binding to native and oxPTM insulin peptides; set-up: species or system human; details: for % binders, Healthy controls / Mean ± SEM (absorbance, OD), Healthy controls / % binders, Type 1 diabetes: Study cohort 1; for % binders, Healthy controls / Mean ± SEM (absorbance, OD), Healthy controls / % binders, Type 1 diabetes / Mean ± SEM (absorbance, OD), Type 1 diabetes: in silico modifications; for % binders, Type 1 diabetes: cut-off = mean of healthy controls to Nt-INSP plus 3 SEM; for Mean ± SEM (absorbance, OD), Type 1 diabetes: Study cohort 1 sera
Description: ELISA for autoantibody detection. The ELISA analysis of Nt-INS and oxPTM-INS autoantibodies was performed as previously described [18](detailed in ESM methods, ELISA assay for antibody detection).
Statistical analyses. Statistical analyses were performed using Prism Software 9.0 (GraphPad, San Diego, CA, USA). Cut-off points of positivity (binders) in the antibody ELISA for each peptide were defined by the mean of optical absorbance (O.D) of healthy controls to the corresponding Nt-INSP plus three times the standard error of the mean (SEM). Specificity and sensitivity were evaluated by receiver operating characteristic (ROC) curve analysis. Area under the curve (AUC) is reported as absolute value and was tested for equality according to DeLong et al. Differences in antibody levels and T-cell stimulation indices (SI) between groups were tested by the One way ANOVA or Student's t-tests as appropriate. Correlation analyses were tested by Pearson or Spearman's test, as appropriate. Categorical analyses were performed by Chi-square or McNemar's tests, as appropriate. For each set of experiments, p values were adjusted for multiple comparison using the Holm-Sidak's test. Hierarchical cluster and Principal Component Analysis (PCA) was done using Clustvis software (https://biit.cs.ut.ee/clustvis/) and Prism Software 9.0, respectively.
Antibody reactivity of type 1 diabetes serum against the candidate oxPTM-INSP. Identified peptide candidates were synthesised and exposed to either HOCl or ^●OH to generate oxPTM-INSPs that were first assessed by TOF-MS/ES+TIC to confirm modification (FIG. 17). Antibody response against native INSPs (Nt-INSPs) and oxPTM-INSPs was evaluated by ELISA using sera from Study cohort 1.
ESM Methods ELISA assay for antibody detection. The ELISA analysis of native (Nt-INS) and modified insulin (oxPTM-INS) was performed as previously described. Briefly, the ELISA plate was coated overnight at 4° C. with 100 μl per well of modified or native insulin in 0.05 M carbonate/bicarbonate buffer pH 9.6 at 10 μg/ml. The next day, the plates were washed 3 times with 0.1% Tween PBS, followed by blocking for 2 hours at room temperature with 200 μl per well of 5% BSA in 0.1% Tween PBS. After washing, 100 μl of 1:200-diluted serum samples in 5% BSA-0.1% Tween PBS were added for additional 2 hours incubation. ELISA plates were then washed 3 times with 0.1% Tween PBS followed by probing with anti-human IgG horse radish peroxidase conjugated (HRP, Sigma) at 1:1,000 dilution in 5% BSA-0.1% Tween PBS for another 1.5 hours incubation. The ELISA plates were washed, and 100 μg/ml TMB substrate in 0.1M sodium acetate pH 6.0 plus 2 μl/10 ml of H2O2, were added. Subsequently, the reaction was stopped with 20% v/v sulphuric acid. The optical density (O.D.) was measured at 450 nm using a GENios plate reader and Magellan software (TECAN, Dorset, UK).

[2] = system: CD4+ T-cells (PBMCs); assay: In vitro peptide stimulation and T-cell proliferation assay, CD4+; type: cell-based, human
Excerpt: (§1) In vitro peptide stimulation and T-cell proliferation assay. Peripheral blood mononuclear cells (PBMCs) were freshly isolated from type 1 diabetes and healthy individuals using Ficoll-Hypaque density gradient centrifugation. PBMCs were labelled with the fluorescent dye CellTrace Violet (Invitrogen, Thermo Fisher Scientific) and cultured (2×10^5 cells/well) in round-bottom 96-well plates (Falcon, Becton Dickinson) with RPMI-1640 medium (Gibco, Thermo Fisher Scientific) supplemented with 5% autologous plasma in the presence or not of insulin peptides (20 μg/ml); PPD (10 μg/ml) and anti-CD3 (0.1 μg/ml; clone OKT3) were used as positive control. Two scrambled peptides: […] (SEQ ID NO: 17), […] (SEQ ID NO: 18), and the Exendin 9-39 fragment were used as negative controls. After 7 days, PBMCs were stained with PE-Cy7 anti-CD8 (clone RPA-T8, BD Pharmingen) and FITC anti-CD3 (clone UCHT1, BD Pharmingen). Samples were analysed by using a FACSCanto II (BD Bioscience) to evaluate T-cell proliferation measured as CellTrace Violet dilution. Cytofluorimetric analyses were performed using FlowJo Software (FlowJo, LLC). The results were given as stimulation index (SI), calculated as percentage of stimulated T-cell subset proliferation/percentage of unstimulated T-cell subset proliferation. Assay for detection of peptide specific T cells subsets was done as previously described (detailed in ESM methods, Assay for detection of peptide specific T cells)
(§2) T-cell stimulation with oxPTM-INSPs. To evaluate the immune cell response against the oxPTM-INSPs, we performed CD4+ and CD8+ T cells proliferation experiments using freshly isolated PBMCs (Study cohort 2, Table 1). Response was calculated as stimulatory index (SI) over unstimulated T-cells.

[3] = system: CD8+ T-cells (PBMCs); assay: In vitro peptide stimulation and T-cell proliferation assay, CD8+; type: cell-based, human
Excerpt: as §1, §2

| % binders, Healthy controls [1] [%] | Mean ± SEM (absorbance, OD), Healthy controls [1] | % binders, Type 1 diabetes [1] [%] | Mean ± SEM (absorbance, OD), Type 1 diabetes [1] | Substance | CD4+ T-cell response, subjects with SI > 1 (%) ([2]; Controls (N = 11)) | CD4+ T-cell response, subjects with SI > 3 (%) ([2]; Controls (N = 11)) | CD4+ T-cell response, subjects with SI > 5 (%) ([2]; Controls (N = 11)) | CD4+ T-cell response, subjects with SI > 10 (%) ([2]; Controls (N = 11)) | CD4+ T-cell response, subjects with SI > 1 (%) ([2]; Type 1 diabetes (N = 18)) | CD4+ T-cell response, subjects with SI > 3 (%) ([2]; Type 1 diabetes (N = 18)) | CD4+ T-cell response, subjects with SI > 5 (%) ([2]; Type 1 diabetes (N = 18)) | CD4+ T-cell response, subjects with SI > 10 (%) ([2]; Type 1 diabetes (N = 18)) | CD8+ T-cell response, subjects with SI > 1 (%) ([3]; Controls (N = 11)) | CD8+ T-cell response, subjects with SI > 3 (%) ([3]; Controls (N = 11)) | CD8+ T-cell response, subjects with SI > 5 (%) ([3]; Controls (N = 11)) | CD8+ T-cell response, subjects with SI > 10 (%) ([3]; Controls (N = 11)) | CD8+ T-cell response, subjects with SI > 1 (%) ([3]; Type 1 diabetes (N = 18)) | CD8+ T-cell response, subjects with SI > 3 (%) ([3]; Type 1 diabetes (N = 18)) | CD8+ T-cell response, subjects with SI > 5 (%) ([3]; Type 1 diabetes (N = 18)) | CD8+ T-cell response, subjects with SI > 10 (%) ([3]; Type 1 diabetes (N = 18)) | other results |
| --- | --- | --- | --- | --- | --- | --- | --- | --- | --- | --- | --- | --- | --- | --- | --- | --- | --- | --- | --- | --- | --- |
| 17 | 0.154 ± 0.006 | 54 | 0.228 ± 0.016 | SL-DOPA-QLENY-Cysteate-N (SL[Dopa]QLENY[Cya]N) [in silico designed oxPTM-INSP-3 derivative] | (54.5%) | (18.2%) | (18.2%) | (0.0%) | (50.0%) | (16.7%) | (10.5%) | (5.6%) | (36.4%) | (27.3%) | (27.3%) | (18.2%) | (44.4%) | (27.8%) | (16.7%) | (5.6%) |  |
| 30 | 0.357 ± 0.030 | 100 | 0.536 ± 0.021 | ERGYY-DOPA-TPKT (ERGYY[Dopa]TPKT) [in silico designed oxPTM-INSP-6 derivative] | (27.3%) | (0.0%) | (0.0%) | (0.0%) | (50.0%) | (5.6%) | (5.2%) | (5.6%) | (18.2%) | (9.10%) | (0.0%) | (0.0%) | (27.8%) | (0.0%) | (0.0%) | (0.0%) | type 1 diabetes binders (IgG autoantibody reactivity) ([1]; Study cohort 2, N = 18): 55.5% |
| 30 | 0.169 ± 0.008 | 57 | 0.256 ± 0.018 | SL-DOPA-QLEN-DOPA-Cysteate-N (SL[Dopa]QLEN[Dopa][Cya]N) [in silico designed oxPTM-INSP-3 derivative] | (27.3%) | (0.0%) | (0.0%) | (0.0%) | (66.7%) | (5.6%) | (0.0%) | (0.0%) | (18.2%) | (9.10%) | (0.0%) | (0.0%) | (33.3%) | (16.7%) | (5.5%) | (5.6%) |  |
